Values joined by “and” are separate entries in the source; they are usually repeats but may differ in a detail not shown here. Identical values can stand only once.
What was measured:
STZ-treated Adn−/− mice = assay: OGTT and triglyceride tolerance test in STZ-treated adiponectin knockout mice; type: in vivo, mouse
Protocol: For oral glucose tolerance test (OGTT), mice were fasted for 4–6 h and subjected to an oral gavage of dextrose (2 mg/g body weight). Tail blood was collected at 0, 15, 30, 60, and 120 min and prepared for serum and assayed for glucose and insulin. For insulin tolerance test (ITT), insulin (0.75 U/kg Humulin R; Eli Lilly, Indianapolis, IN) was administered under fed condition. Serum glucose level was measured at 0, 15, 30, 60, and 90 min time point. Triglyceride tolerance test (TGTT) was initiated by oral gavage of 20% Intralipid (10 μl/g BDW, l141-100 ml, Sigma), and serum was collected at 0, 1, 1.5, 3, and 6 h for triglyceride assay. Glucose, insulin, and triacylglyceride levels were measured using an oxidase-peroxidase assay (Sigma P7119), insulin ELISA (Crystal Chem, Elk Grove village, IL, #15596018), and Infinity Triglycerides Reagent (Thermo Fisher Scientific TR22421).
Streptozotocin (STZ; Sigma S1030) was dissolved by 0.05 M citrate buffer (final; 20 mg/ml). Following 6 h fasting, mice received a single intraperitoneal injection of streptozotocin (200 mg/kg) to induce insulinopenic conditions.

INS-1 cells = assay: Ceramide and dihydroceramide levels in PA-stressed INS-1 cells by mass spectrometry; type: cell-based, rat; conditions: 24 h, PA 0.25 mM; for Ceramides 14:0 / Ceramides 16:0 / Ceramides 18:0 / Ceramides 18:1 / Ceramides 20:0 / Ceramides 22:0 / Ceramides 24:0 / Ceramides 24:1 / Ceramides 26:0 / Ceramides 26:1 / Dihydroceramides 16:0 / Dihydroceramides 18:0 / Dihydroceramides 20:0 / Dihydroceramides 22:0 / Dihydroceramides 24:0 / Dihydroceramides 24:1: INS1 cells, three replicates
Protocol: INS-1 cells were seeded at 2 × 10^6/well in a 6-well plate. Cells were treated as follows for 24 h: (i) Control: No FBS or PA (0.25 mM); (ii) Positive Control: 10% FBS + PA (0.25 mM); (iii) Adiponectin (10 nM) + PA (0.25 mM); (iv) AdipoRonPEG6HTL (10 nM) + PA (0.25 mM); (v) AdipoRonPEG6HTL (1 μM) + PA (0.25 mM); (vi) AdipoRonPEG5 (1 μM) + PA (0.25 mM); (vii) AdipoRonPEG5 (20 μM) + PA (0.25 mM). Thereafter, treatment was aspirated, and the cells were washed with cold PBS x 2, scraped off with 1–2 ml PBS, and spun down at 2,500 rpm for 5 min. The supernatant was aspirated, and the pallet was stored at […] for sphingolipid analysis.
Flash-frozen tissue samples (~40 mg) in a borosilicate glass tube were quenched with 2.0 ml of organic extraction solvent (isopropanol: ethyl acetate, 15:85; v:v) and homogenized with a mechanical tissue disruptor. Immediately afterward, 20 μl of organic internal standard solution was added (Ceramide/Sphingoid Internal Standard Mixture II diluted 1:10 in ethanol). The mixture was vortexed for 20 s and sonicated in ultrasonic bath for 40 min at 40°C. The organic extract was allowed to reach room temperature, and 1.5 ml of HPLC water was added and a two-phase liquid-liquid extraction was performed. The upper phase was transferred to a new clean tube, and the lower aqueous phase containing the protein pellet was re-extracted with additional 2.0 ml of organic extraction solvent. The organic phases were combined and dried under nitrogen stream at 40°C. Dried extracts were stored at –80°C until analysis. For analysis of ceramides and sphingoid base species, the dried residues were reconstituted in 200 μl of methanol. Sphingomyelins required a sample dilution of 1:50 in methanol prior to analysis. Serum sphingolipids were extracted using a similar methodology requiring 25 μl of serum.
In total, 5 μl of reconstituted samples was injected into an LC/MS/MS system for the analysis of ceramides and sphingoid bases, and 1 μl injection was required for the analysis of sphingomyelins. The system consisted of a Shimadzu LCMS-8050 triple-quadrupole mass spectrometer with the dual ion source operating in electrospray positive ionization mode. The mass spectrometer is coupled to a Shimadzu Nexera X2 UHPLC system equipped with three solvent delivery modules LC-30AD, three degassing units DGU-20A5R, an autosampler SIL-30ACMP, and a column oven CTO-20AC operating at 40°C (Shimadzu Scientific Instruments, Columbia, MD). Six sphingoid bases (d18:1 sphingosine, d18:1 sphingosine-1-phosphate, d18:1 deoxysphingosine, d18:0 sphinganine, d18:0 sphinganine-1-phosphate, d18:0 deoxysphinganine) and […] ceramide species and their metabolites (C16:0, C16:0 dihydroceramide, C16:0 glucosylceramide, C16:0 lactosylceramide, C16:0 sphingomyelin, C18:0, C18:0 dihydroceramide, C18:0 glucosylceramide, C18:0 sphingomyelin, C18:1, C20:0, C22:0, C22:0 glucosylceramide, C24:0, C24:0 dihydroceramide, C24:0 lactosylceramide, C24:0 sphingomyelin, C24:1, C24:1 dihydroceramide, C24:1 glucosylceramide, C24:1 sphingomyelin). Quantitative analysis of sphingolipids was achieved using selective reaction monitoring scan mode. Lipid separation was achieved by reverse phase LC on a 2.1 (i.d.) × 150 mm Ascentis Express C8, 2.7 micron (Supelco, Bellefonte, PA) column under gradient elution, using three different mobile phases: eluent A consisting of methanol/water/formic acid, 600/400/0.8, v/v/v with 5 mM ammonium formate, eluent B consisting of methanol/formic acid, 1,000/0.8, v/v with 5 mM ammonium formate, and eluent C consisting of CH3OH/CH2Cl2 350/650. The concentration of each metabolite was determined according to calibration curves using the peak-area ratio of analyte versus corresponding internal standard. Calibration curves were generated using serial dilutions of each target analyte.

wild-type mice = assay: Cold exposure (4°C): body temperature, scWAT histology, qPCR; type: in vivo, mouse
Protocol: In total, 5 mg/Kg of PBS and AdipoRonPEG5 were injected twice a day for 5 days at room temperature followed by housing in the cold chamber (4°C) for 7 days. Body temperature was measured at 0, 1, 2, 3, 4, and 5 h time point at the first day of cold exposure. In total, 5 mg/Kg of PBS and AdipoRonPEG5 were injected once a day for 7 days after cold exposure followed by harvesting tissues for qPCR analysis.

`O=C(COc1ccc(C(=O)c2ccccc2)cc1)NC1CCN(Cc2ccc(OCCOCCOCCOCCOCCO)cc2)CC1` [AdipoRonPEG5] was tested, and the “blood TG levels in triglyceride tolerance test” value (STZ-treated Adn−/− mice) was “not altered”, the “glucose levels in OGTT” value (STZ-treated Adn−/− mice) was “improved the glucose levels” and the “C22:0 and C24:0 ceramides” value (INS-1 cells; 1 μM) was “significantly reduced”. For the same molecule, the “overall dihydroceramide and ceramides levels” value (INS-1 cells) was “markedly lowered”, the “Ceramides 14:0” value (INS-1 cells; 1 μM) was 11.37 pg/mg and 8.34 pg/mg and 8.44 pg/mg and the “Ceramides 16:0” value (INS-1 cells; 1 μM) was 132.31 pg/mg and 60.25 pg/mg and 97.74 pg/mg. The “Ceramides 18:0” value (INS-1 cells; 1 μM) was 285.84 pg/mg and 108.83 pg/mg and 172.70 pg/mg, the “Ceramides 18:1” value (INS-1 cells; 1 μM) was 2.60 pg/mg and 1.60 pg/mg and 2.34 pg/mg and the “Ceramides 20:0” value (INS-1 cells; 1 μM) was 81.47 pg/mg and 94.91 pg/mg and 71.51 pg/mg. The “Ceramides 22:0” value (INS-1 cells; 1 μM) was 502.13 pg/mg and 501.01 pg/mg and 352.24 pg/mg, the “Ceramides 24:0” value (INS-1 cells; 1 μM) was 985.21 pg/mg and 942.22 pg/mg and 715.38 pg/mg and the “Ceramides 24:1” value (INS-1 cells; 1 μM) was 415.25 pg/mg and 405.60 pg/mg and 306.31 pg/mg. The “Ceramides 26:0” value (INS-1 cells; 1 μM) was 13.63 pg/mg and 11.39 pg/mg and 10.09 pg/mg, the “Ceramides 26:1” value (INS-1 cells; 1 μM) was 4.83 pg/mg and 4.31 pg/mg and 3.39 pg/mg and the “Dihydroceramides 16:0” value (INS-1 cells; 1 μM) was 20.35 pg/mg and 15.35 pg/mg and 22.55 pg/mg. The “Dihydroceramides 18:0” value (INS-1 cells; 1 μM) was 114.43 pg/mg and 74.94 pg/mg and 73.63 pg/mg, the “Dihydroceramides 20:0” value (INS-1 cells; 1 μM) was 37.94 pg/mg and 40.41 pg/mg and 33.11 pg/mg and the “Dihydroceramides 22:0” value (INS-1 cells; 1 μM) was 124.23 pg/mg and 124.34 pg/mg and 96.61 pg/mg. The “Dihydroceramides 24:0” value (INS-1 cells; 1 μM) was 149.67 pg/mg and 168.38 pg/mg and 120.04 pg/mg, the “Dihydroceramides 24:1” value (INS-1 cells; 1 μM) was 47.95 pg/mg and 51.21 pg/mg and 34.41 pg/mg and the “Ceramides 14:0” value (INS-1 cells; 20 μM) was 13.47 pg/mg and 7.61 pg/mg and 10.59 pg/mg. The “Ceramides 16:0” value (INS-1 cells; 20 μM) was 264.29 pg/mg and 93.09 pg/mg and 72.49 pg/mg, the “Ceramides 18:0” value (INS-1 cells; 20 μM) was 442.08 pg/mg and 170.74 pg/mg and 152.01 pg/mg and the “Ceramides 18:1” value (INS-1 cells; 20 μM) was 3.76 pg/mg and 2.21 pg/mg and 1.71 pg/mg. The “Ceramides 20:0” value (INS-1 cells; 20 μM) was 86.19 pg/mg and 75.99 pg/mg and 78.87 pg/mg, the “Ceramides 22:0” value (INS-1 cells; 20 μM) was 345.37 pg/mg and 441.95 pg/mg and 372.15 pg/mg and the “Ceramides 24:0” value (INS-1 cells; 20 μM) was 827.24 pg/mg and 951.19 pg/mg and 835.47 pg/mg. The “Ceramides 24:1” value (INS-1 cells; 20 μM) was 377.12 pg/mg and 400.62 pg/mg and 388.65 pg/mg, the “Ceramides 26:0” value (INS-1 cells; 20 μM) was 9.40 pg/mg and 10.66 pg/mg and 9.87 pg/mg and the “Ceramides 26:1” value (INS-1 cells; 20 μM) was 3.59 pg/mg and 4.43 pg/mg and 3.78 pg/mg. The “Dihydroceramides 16:0” value (INS-1 cells; 20 μM) was 24.81 pg/mg and 12.98 pg/mg and 10.56 pg/mg, the “Dihydroceramides 18:0” value (INS-1 cells; 20 μM) was 94.22 pg/mg and 32.83 pg/mg and 48.23 pg/mg and the “Dihydroceramides 20:0” value (INS-1 cells; 20 μM) was 22.59 pg/mg and 15.72 pg/mg and 18.47 pg/mg. The “Dihydroceramides 22:0” value (INS-1 cells; 20 μM) was 48.91 pg/mg and 46.89 pg/mg and 48.41 pg/mg, the “Dihydroceramides 24:0” value (INS-1 cells; 20 μM) was 58.93 pg/mg and 62.29 pg/mg and 62.49 pg/mg and the “Dihydroceramides 24:1” value (INS-1 cells; 20 μM) was 21.44 pg/mg and 23.79 pg/mg and 23.03 pg/mg. The “subcutaneous adipose tissue histology after cold exposure” value (wild-type mice; 5 mg/kg, 4°C) was “resembling beige adipocytes”, the “body temperature after acute cold exposure” value (wild-type mice; 5 mg/kg, 5 days treatment, 4°C) was “significantly higher body temperature” and the “T-cadherin (CDH13) expression” value (wild-type mice; scWAT and BAT after cold exposure, qPCR) was “upregulated expression”.
